This data set can be described thus: saturation point of dodecanoic acid in the liquid lock components at room temperature. It counts as physicochemical. The settings on record: without heating, soluble in octanoic acid, decanoic and tocopherol, weight/volume. From the text: In a fifth aspect of the present invention, a hydrophobic antimicrobial catheter lock solution includes alpha-tocopherol, in a concentration of 0% to 50% by volume/volume and mid-chain fatty acids. The fatty acids may include any combination of octanoic acid (0% to 25% volume/volume), decanoic acid (0% to 12.5% volume/volume), and/or dodecanoic acid (0% to 12.5% weight/volume). The combined formula after dissolving and mixing the chosen mid-chain fatty acid(s) is adjusted to a final volume with the alpha-tocopherol so that the solution has a viscosity greater than about 3 mPa·s. The lock has a viscosity in the range of about 3-5 mPa·s. Dodecanoic acid is a solid soluble in octanoic acid, decanoic and tocopherol. Concentrations of dodecanoic acid of less than about 25% dissolve readily without heating (i.e. 25% is approximately the saturation point of dodecanoic acid at room temperature). Optimal concentrations are most easily achieved by dissolution of dodecanoic acid in octanoic acid prior to adding the tocopherol. Of course, it is also possible to mix any or all of the liquid ingredients (i.e. octanoic acid and/or decanoic acid and/or tocopherol) together first and secondarily dissolve the dodecanoic acid. Alternatively, dodecanoic acid could be mixed with any of the liquids and the remaining liquid components added depending on the concentration of dodecanoic acid. […]

On to `CCCCCCCCCCCC(=O)O` [dodecanoic acid], for which the “saturation point of dodecanoic acid” value was “about 25%”.

The values above are taken from patent US20110213025A1, “Catheter Lock Solutions Utilizing Tocopherol and Mid-Chain Fatty Acids” (ProviFlo, LLC, priority 2009, published 2011).
